Data published in patent publication US20220356174A1, “PYRIDIN-2-ONE COMPOUNDS USEFUL AS SMARCA2 ANTAGONISTS” (Epizyme, Inc., priority 2018, published 2022).
Read-outs that look alike come from different tables or passages of the source.

Columns and labels:
[1] = target: T1, FL-SMARCA2 (full-length human SMARCA2 isoform 1) (Homo sapiens, UniProt P51531); experiment: SMARCA2 ATPase activity assay (ADP-Glo, chicken mononucleosome substrate); type: biochemical; conditions: ATP 250 uM
T1 construct: FLAG tag (YKDDDDK) (C); made in house; host or cells: Sf21 insect cells (baculovirus, pFastBacI)
T1 sequence (P51531 with tags, fused parts or gaps): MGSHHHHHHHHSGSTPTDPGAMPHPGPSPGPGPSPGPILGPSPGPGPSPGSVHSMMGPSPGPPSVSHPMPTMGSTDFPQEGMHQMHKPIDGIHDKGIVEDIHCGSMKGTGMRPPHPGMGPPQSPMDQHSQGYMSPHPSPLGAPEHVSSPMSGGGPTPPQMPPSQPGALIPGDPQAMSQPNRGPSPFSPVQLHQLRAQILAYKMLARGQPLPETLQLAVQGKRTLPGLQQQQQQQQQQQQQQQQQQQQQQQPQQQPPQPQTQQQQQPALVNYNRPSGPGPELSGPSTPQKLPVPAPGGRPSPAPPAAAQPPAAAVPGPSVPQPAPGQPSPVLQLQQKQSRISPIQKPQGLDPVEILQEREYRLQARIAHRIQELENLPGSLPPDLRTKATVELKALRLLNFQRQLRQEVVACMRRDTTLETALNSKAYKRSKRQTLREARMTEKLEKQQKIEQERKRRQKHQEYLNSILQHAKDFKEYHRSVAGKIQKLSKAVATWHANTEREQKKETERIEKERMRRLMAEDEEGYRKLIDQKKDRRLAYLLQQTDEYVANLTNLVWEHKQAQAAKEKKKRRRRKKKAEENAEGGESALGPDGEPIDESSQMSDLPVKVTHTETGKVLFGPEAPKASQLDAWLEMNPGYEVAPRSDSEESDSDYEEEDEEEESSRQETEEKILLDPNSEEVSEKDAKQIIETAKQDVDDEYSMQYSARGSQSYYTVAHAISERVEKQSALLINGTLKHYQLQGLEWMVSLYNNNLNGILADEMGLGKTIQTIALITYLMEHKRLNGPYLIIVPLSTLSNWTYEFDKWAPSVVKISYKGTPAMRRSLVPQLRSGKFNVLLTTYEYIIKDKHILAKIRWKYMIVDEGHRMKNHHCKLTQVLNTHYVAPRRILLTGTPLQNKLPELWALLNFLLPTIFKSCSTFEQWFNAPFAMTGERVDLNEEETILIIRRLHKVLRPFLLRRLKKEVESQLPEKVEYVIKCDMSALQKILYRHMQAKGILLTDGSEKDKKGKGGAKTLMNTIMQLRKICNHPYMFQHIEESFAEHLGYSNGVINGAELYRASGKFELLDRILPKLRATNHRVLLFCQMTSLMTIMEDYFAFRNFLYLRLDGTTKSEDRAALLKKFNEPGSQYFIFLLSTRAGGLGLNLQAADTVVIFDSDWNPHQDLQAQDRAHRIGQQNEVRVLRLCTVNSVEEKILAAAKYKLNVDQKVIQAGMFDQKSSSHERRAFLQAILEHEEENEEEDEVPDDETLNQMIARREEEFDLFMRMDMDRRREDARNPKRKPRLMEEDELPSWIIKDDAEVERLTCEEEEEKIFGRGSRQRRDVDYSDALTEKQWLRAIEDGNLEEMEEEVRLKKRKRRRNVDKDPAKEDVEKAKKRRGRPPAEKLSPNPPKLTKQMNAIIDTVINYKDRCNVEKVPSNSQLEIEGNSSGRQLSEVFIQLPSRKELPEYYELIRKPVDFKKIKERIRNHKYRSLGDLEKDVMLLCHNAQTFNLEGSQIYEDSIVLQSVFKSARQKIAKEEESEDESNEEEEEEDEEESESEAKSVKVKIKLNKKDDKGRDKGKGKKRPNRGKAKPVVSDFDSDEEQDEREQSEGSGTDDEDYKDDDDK

[2] = target: FL-SMARCA4 (Homo sapiens, UniProt P51532); experiment: SMARCA4 ATPase activity assay (ADP-Glo, chicken mononucleosome substrate)
Chain of FL-SMARCA4 (P51532 whole entry): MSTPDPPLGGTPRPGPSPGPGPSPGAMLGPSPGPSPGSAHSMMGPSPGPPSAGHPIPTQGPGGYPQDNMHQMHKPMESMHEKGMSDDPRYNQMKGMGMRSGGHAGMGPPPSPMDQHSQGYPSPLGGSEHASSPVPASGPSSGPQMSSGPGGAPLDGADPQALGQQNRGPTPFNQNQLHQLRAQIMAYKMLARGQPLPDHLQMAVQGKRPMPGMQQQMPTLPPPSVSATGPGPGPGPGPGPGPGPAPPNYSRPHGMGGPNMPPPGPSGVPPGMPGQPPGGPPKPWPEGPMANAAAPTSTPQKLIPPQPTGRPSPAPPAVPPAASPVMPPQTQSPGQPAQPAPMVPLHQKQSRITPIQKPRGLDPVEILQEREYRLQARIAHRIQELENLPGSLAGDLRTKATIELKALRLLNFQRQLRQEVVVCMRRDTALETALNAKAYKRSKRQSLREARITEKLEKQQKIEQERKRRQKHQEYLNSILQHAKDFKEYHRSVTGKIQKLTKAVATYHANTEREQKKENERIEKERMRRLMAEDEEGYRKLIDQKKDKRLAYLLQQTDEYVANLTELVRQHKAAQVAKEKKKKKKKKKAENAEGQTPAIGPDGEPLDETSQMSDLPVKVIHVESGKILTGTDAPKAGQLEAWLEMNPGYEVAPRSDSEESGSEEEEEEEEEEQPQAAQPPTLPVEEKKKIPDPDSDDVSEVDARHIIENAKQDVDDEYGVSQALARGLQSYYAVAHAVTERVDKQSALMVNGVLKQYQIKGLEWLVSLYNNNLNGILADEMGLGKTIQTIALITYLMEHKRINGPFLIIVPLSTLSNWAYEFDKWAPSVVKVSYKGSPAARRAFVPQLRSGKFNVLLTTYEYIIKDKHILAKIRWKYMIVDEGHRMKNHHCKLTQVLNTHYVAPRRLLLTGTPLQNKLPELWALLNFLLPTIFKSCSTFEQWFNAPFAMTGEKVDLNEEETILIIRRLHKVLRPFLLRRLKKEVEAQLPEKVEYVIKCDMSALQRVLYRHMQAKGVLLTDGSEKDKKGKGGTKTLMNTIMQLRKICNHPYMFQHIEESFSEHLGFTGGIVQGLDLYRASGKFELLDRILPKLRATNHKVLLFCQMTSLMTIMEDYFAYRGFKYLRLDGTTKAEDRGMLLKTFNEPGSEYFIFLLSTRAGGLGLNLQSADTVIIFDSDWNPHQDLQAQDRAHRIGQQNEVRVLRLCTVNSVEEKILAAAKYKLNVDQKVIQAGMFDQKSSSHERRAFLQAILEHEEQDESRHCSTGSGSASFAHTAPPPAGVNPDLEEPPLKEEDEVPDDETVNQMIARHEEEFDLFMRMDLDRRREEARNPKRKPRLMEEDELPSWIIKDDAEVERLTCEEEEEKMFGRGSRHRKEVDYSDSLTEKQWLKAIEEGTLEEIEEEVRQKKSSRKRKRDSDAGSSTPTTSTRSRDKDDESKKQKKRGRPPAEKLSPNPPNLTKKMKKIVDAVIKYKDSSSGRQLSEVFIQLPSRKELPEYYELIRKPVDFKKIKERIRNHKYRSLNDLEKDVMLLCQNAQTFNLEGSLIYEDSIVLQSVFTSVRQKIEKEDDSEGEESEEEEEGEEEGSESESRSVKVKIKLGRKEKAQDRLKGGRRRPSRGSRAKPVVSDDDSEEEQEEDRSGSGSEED

[3] = Table 3.1, ATPase assay, enzyme 5 nM, chicken mononucleosome 10 nM, 30 min preincubation
[4] = FL-SMARCA4 IC50, Table 3.2, ATPase assay, enzyme 5 nM, ATP 250 uM, chicken mononucleosome 10 nM, 30 min preincubation
[5] = Table 3a.1, SMARCA2 5 nM, mononucleosome 10 nM
[6] = FL-SMARCA4 IC50, Table 3a.2, SMARCA4 5 nM, ATP 250 uM, mononucleosome 10 nM
[7] = Table 3b.1, SMARCA2 5 nM, mononucleosome 10 nM
[8] = FL-SMARCA4 IC50, Table 3b.2, SMARCA4 5 nM, ATP 250 uM, mononucleosome 10 nM
[9] = Table 3c.1, ATPase assay, enzyme 5 nM, chicken mononucleosome 10 nM, 30 min preincubation
[10] = FL-SMARCA4 IC>50, Table 3c.2, ATPase assay, enzyme 5 nM, ATP 250 uM, chicken mononucleosome 10 nM, 30 min preincubation

Structure (SMILES)	IC50 [1, 3]	IC50 [2, 4]	further results
O=C(Nc1cc(F)c(=O)n(CCF)c1)c1cc(Cl)c(CO)s1 [Compound 284]	3.21 µM	30.6 µM	–
CCn1cc(NC(=O)c2cc(C(F)(F)F)ccn2)ccc1=O [Compound 59a]	–	–	IC50 [1, 5]: > 50 µM; IC50 [2, 6]: > 50 µM
CCn1cc(NC(=O)c2csc(NC(C)C)n2)ccc1=O [Compound 218]	> 50 µM	> 50 µM	–
O=C(Nc1cc(F)c(=O)n(CCF)c1)c1cnc(-n2ccnc2C(F)(F)F)s1 [Compound 281]	> 50 µM	> 50 µM	–
O=C(Nc1ccc(=O)n(CC(F)F)c1)c1cc(Cl)c(Cl)s1 [Compound 81]	0.223 µM	0.723 µM	–
CCn1cc(NC(=O)[C@@H]2CCC[C@@H](Cl)C2)ccc1=O [Compound 14b]	–	–	IC50 [1, 7]: > 50 µM; IC50 [2, 8]: > 50 µM
NCCn1cc(NC(=O)c2cc(F)c(Cl)s2)cc(F)c1=O [Compound 32c]	–	–	IC50 [1, 9]: 5.67 µM; IC50 [2, 10]: 12.5 µM
CCn1cc(NC(=O)c2ccc(C(F)(F)F)cn2)ccc1=O [Compound 58a]	–	–	IC50 [1, 5]: > 50 µM; IC50 [2, 6]: > 50 µM
N#Cc1cc(C(=O)Nc2cc(Cl)c(=O)n(CCF)c2)sc1Cl [Compound 215]	0.071 µM	0.492 µM	–
CCn1cc(NC(=O)c2cccc(C(F)(F)F)n2)ccc1=O [Compound 57a]	–	–	IC50 [1, 5]: > 50 µM; IC50 [2, 6]: > 50 µM
O=C(Nc1cc(F)c(=O)n(CCF)c1)c1ccc(-c2ccn[nH]2)s1 [Compound 312]	> 50 µM	> 50 µM	–
O=C(Nc1cc(F)c(=O)n(CC(F)F)c1)c1cc(C2CC(c3ccncc3)C2)c(Cl)s1 (centres unmarked) [Compound 152c]	–	–	IC50 [1, 9]: 4.69 µM; IC50 [2, 10]: 37.5 µM
Cc1cc(NC(=O)c2cnn(-c3cccc(Cl)c3)c2C)c[nH]c1=O [Compound 4]	> 50 µM	> 50 µM	–
O=C(Nc1cc(F)c(=O)n(CCF)c1)c1cc2cncnc2[nH]1 [Compound 66a]	–	–	IC50 [1, 5]: 32.1 µM; IC50 [2, 6]: > 50 µM
O=C(Nc1ccc(=O)n(CCF)c1)c1cc(Cl)n[nH]1 [Compound 154]	1.93 µM	8.08 µM	–
CCn1cc(NC(=O)C2C(C)(C)C2(C)C)ccc1=O [Compound 3b]	–	–	IC50 [1, 7]: > 50 µM; IC50 [2, 8]: > 50 µM
CN(C)C(=O)c1sc(C(=O)Nc2cc(F)c(=O)n(CCF)c2)cc1Cl [Compound 282]	> 50 µM	> 50 µM	–

Structure (SMILES)	IC50 [1, 3]	IC50 [2, 4]	further results
CCn1cc(NC(=O)c2cc(Cl)n(C)c2Cl)ccc1=O [Compound 96]	> 50 µM	> 50 µM	–
CCn1cc(NC(=O)c2ccc(Cl)cc2)ccc1=O [Compound 7b]	–	–	IC50 [1, 7]: > 50 µM; IC50 [2, 8]: > 50 µM
O=C(Nc1ccc(=O)n(CC2CC2)c1)c1cc(Cl)c(Cl)s1 [Compound 82]	14.8 µM	28.9 µM	–
CN(C)C(=O)c1ccc(C(=O)Nc2cc(F)c(=O)n(CCF)c2)cc1 [Compound 21b]	–	–	IC50 [1, 7]: > 50 µM; IC50 [2, 8]: > 50 µM
O=C(Nc1cc(F)c(=O)n(CCF)c1)c1cc(Cl)c(C(O)C(F)(F)F)s1 (centres unmarked) [Compound 289]	10.6 µM	42.6 µM	–
NS(=O)(=O)c1sc(C(=O)Nc2cc(F)c(=O)n(CCF)c2)cc1Cl [Compound 309]	29.6 µM	> 50 µM	–
CCn1cc(NC(=O)c2cnc(NC(C)C)s2)ccc1=O [Compound 217]	> 50 µM	> 50 µM	–
CO[C@@H]1CN[C@H](C(=O)Nc2cc(Br)c(=O)n(C)c2)C1 [Compound 9a]	–	–	IC50 [1, 5]: > 50 µM; IC50 [2, 6]: > 50 µM
CCn1cc(NC(=O)c2cc(C#N)c(Cl)s2)ccc1=O [Compound 106]	0.417 µM	0.838 µM	–
CNC(=O)c1cc(C(=O)Nc2cc(F)c(=O)n(CCF)c2)sc1Cl [Compound 291]	> 50 µM	> 50 µM	–
CC(=O)Nc1ncc(C(=O)Nc2cc(F)c(=O)n(CCF)c2)s1 [Compound 258]	> 50 µM	> 50 µM	–
O=C(CNCC1CC1)Nc1ccc(=O)n(Cc2ccccc2Cl)c1 [Compound 6d]	–	–	IC50 ([1]; Table 3d.1, ATPase assay, enzyme 5 nM, chicken mononucleosome 10 nM, 30 min preincubation, read-out: FL-SMARCA2 IC>50): 22.4 µM; IC50 ([2]; FL-SMARCA4 IC50): > 50 µM
O=C(Nc1cc(-c2c[nH]cn2)c(=O)n(CC(F)F)c1)c1cc(Cl)c(C(F)(F)F)s1 [Compound 104c]	–	–	IC50 [1, 9]: 22.4 µM; IC50 [2, 10]: 29.6 µM
CCn1cc(NC(=O)c2cc(C#Cc3ccncc3)c(Cl)s2)ccc1=O [Compound 334]	0.182 µM	0.337 µM	–
COCCn1cc(NC(=O)c2cc(Cl)c(Cl)s2)ccc1=O [Compound 87]	> 50 µM	> 50 µM	–
CCn1cc(NC(=O)c2cnc(-c3ccc4c(c3)CCO4)s2)ccc1=O [Compound 5]	> 50 µM	> 50 µM	–
CCn1cc(NC(=O)c2cc(Cl)c(C#N)s2)ccc1=O [Compound 86]	0.365 µM	0.669 µM	–
